Laboratory results from patent publication US11857601B2, “Pharmaceutical composition for cancer treatment comprising fusion protein including IL-2 protein and CD80 protein and anticancer drug” (GI INNOVATION, INC., priority 2020, dated 2024).

Columns and labels:
BT-474 cells = experiment: mGI-101 and Herceptin in BT-474 xenotransplanted tumor model; type: in vivo, human
Excerpt: BT-474 cells were purchased from ATCC (USA) and cultured in RPMI1640 medium (Welgene) containing 10% FBS (Gibco) and 1% antibiotic/antifungal agent (Gibco).
In order to establish a xenotransplanted tumor model for BT-474 cells, it was subcutaneously injected into the left flank of BALB/c nu/nu female mice (7-week-old) by pulling the leather skin of the mice to make a space using a pellet transplant trochar (MP-182, Innovative Research of America, USA) so that it was located under the skin of the left flank.
A certain period of time after cell inoculation of the tumor grafts of the mice, the tumor volume was measured for animals with no abnormalities in the health condition of the animals, and the subjects were selected so that the average of each group reached less than 60-120 mm^3, and the selected animals were assigned as evenly as possible based on tumor volume and body weight, each group including 10 animals.
Clinical symptoms such as a disease and a behavioral change were observed once a day during the test period, and deceased animals were identified, and the mice were sacrificed when the tumor size reached a size of 4,000 mm^3.
The tumor volume before administration of each subject was set as the value measured at the time of grouping.
All statistical calculations were performed using Prism 8.0 (Graph Pad Software Inc, USA). The comparison of tumor volume measurements was made through two-way analysis of variance followed by Tukey's multiple comparison test. A p value of less than 0.05 was considered significant.

[1] = test system: effector CD8+ T cells, NK cells, Treg cells; experiment: Effect on mouse immune cells in spleen; type: in vivo, C57BL/6 mice; settings: 3rd to 14th days after i.v. administration (3, 6 or 12 mg/kg), vs PBS
Procedure: On days 1, 3, 5, 7, and 14 after the injection, the spleen tissues were removed from the mice of each group. Thereafter, for the spleen tissue, the numbers of effector CD8+ T cells, NK cells, and Treg cells were calculated with FACS analysis using respective antibodies, and proportions of effector CD8+ T cells and NK cells with respect to Treg cells were respectively calculated. The information on the antibodies used in each cell analysis is as follows:
Effector CD8+ T cell: PB anti-mouse CD3ε antibody (Biolegend, #155612; KT3.1.1), FITC anti-mouse CD8α antibody (BD, #553031, 53-6.7), PE/Cy7 anti-mouse CD44 antibody (Biolegend, #103030; IM7), APC anti-mouse CD122 antibody (Biolegend, #123214; TM-β1)
NK cell: PB anti-mouse CD3ε antibody (Biolegend, #155612; KT3.1.1), PE anti-mouse NK-1.1 (Biolegend, #108708; PK136)
Treg cell: FITC anti-mouse CD3 antibody (Biolegend, #100204; 17A2), PB anti-mouse CD4 antibody (Biolegend, #100531; RM4-5), PE anti-mouse CD25 antibody (Biolegend, #102008; PC61), APC anti-mouse Foxp3 antibody (Invitrogen, #FJK-16s, 17-5773-82).

human PBMCs = experiment: IFN-γ production in PHA-treated CFSE-labeled PBMCs (ELISA); type: cell-based; settings: PBMCs + PHA 5 μg/ml; 1, 10 or 100 nM; 6 days; compared with GI101C1, GI101C2 or IL-2
Procedure: Peripheral blood mononuclear cells (PBMCs) isolated from a human were labeled with carboxyfluorescein succinimidyl ester (CFSE) by being reacted with 1 μM CellTrace CFSE dye at 37° C. for 20 minutes. CFSE not bound to the cells was removed by being reacted for 5 minutes with a culture medium having a 5-fold volume of the staining reaction solution and then by being centrifuged at 1,300 rpm for 5 minutes. […]
The cells were analyzed by FACS, and human IFN-γ present in the culture medium was measured using an ELISA kit (Biolegend, San Diego, CA, USA, cat No. 430103).
The amount of human IFN-γ secreted into the supernatant of each sample in which the cells had been cultured was measured using a human IFN-γ ELISA kit (Biolegend, cat No. 430103). […]
After the reaction was completed, the plate was washed and secondary antibodies (detection antibodies) were added thereto. […] Finally, […] was added thereto to stop the color development reaction, and the absorbance at 450 nm was measured with Epoch Microplate Spectrophotometer (BioTek instruments, Winooski, VT, USA), and the concentration was calculated.

[2] = test system: CD8+ T cells and CD4+/FoxP3+ Treg cells; experiment: Proliferation of CD8+ T cells and Treg cells in PBMCs (Exp. Ex. 10); type: cell-based, human
Procedure: Human PBMCs were purchased from Allcells (Lot #3014928, USA). […] CellTrace CFSE dye was used, which was reacted with the human PBMCs under a light-blocking condition at […] for 20 minutes. The cells were labeled with CFSE by being reacted with 1 μM CellTrace CFSE dye at 37° C. for 20 minutes. CFSE not bound to the cells was removed by being reacted for 5 minutes with a culture medium having a 5-fold volume of the staining reaction solution and then by being centrifuged at 1,300 rpm for 5 minutes. The CFSE-labeled PBMCs were resuspended in the culture medium (RPMI1640 medium containing 10% fetal bovine serum, 10 mM HEPES, 100 U/ml penicillin/streptomycin, 1 mM sodium pyruvate, 55 μM 2-mercaptoethanol, 1 mM non-essential amino acid, and 2 mM L-glutamine), and then added to a 96-well microplate at 1×10^5 cells per well.
The incubated cells were examined for their degree of proliferation by measuring, with FACS analysis using anti-human CD4-PE antibody (BioLegend, USA), anti-human CD8-PE/Cy7 antibody (BioLegend, USA), and anti-human FoxP3-APC antibody (BioLegend, USA), a proportion of CD8+ T cells that had not been labeled with CFSE.

[3] = BT-474, end of the test, 10 animals per group

Substance	number of mice with tumor growth inhibition rate of 30% or more (BT-474 cells; [3])	number of mice with tumor growth inhibition rate of 50% or more (BT-474 cells; [3])	number of mice with tumor growth inhibition rate of 80% or more (BT-474 cells; [3])	tumor size compared with the vehicle control (BT-474 cells; mGI-101 3 mg/kg i.v. QW: day 28, Herceptin 1 mg/kg i.p. QW: day 14, 18, 21, combination: day 14 to day 28)	numbers of CD8+ T cells and NK cells [1]	IFN-γ secretion (human PBMCs)	proportion of CD8+ T cells ([2]; anti-CD3ε 1 μg/ml, 7 days, compared with no stimulus, anti-CD3 antibody alone and GI101C1)	proliferation of CD4+/FoxP3+ Treg cells ([2]; compared with no stimulus and anti-CD3 antibody alone)
mGI101: fusion protein: mouse CD80, Ig hinge, Fc domain, linker, IL-2 variant (2M) (R38A, F42A); SEQ ID NO: 15	5 mice	1 mice	no mouse	statistically significant reduction in tumor size	significant increase			
GI101: fusion protein: human CD80 fragment, Ig hinge, Fc domain, linker, IL-2 variant (2M) (R38A, F42A); SEQ ID NO: 9						remarkable increase	significant increase	significant increase
